What is called IC50 is the concentration needed to halve the response being measured. High values mean weaker potency in that assay, low ones greater potency in that assay.

A value given as a limit tells only on which side of the number the result lay.

For one assay, the system named is PC-3. In words: cells. The conditions noted are these: Homo sapiens, PC-3, 72 h.
The next assay has as its system A549. In words: cells. To be noted: Homo sapiens, A549, 72 h.
In another assay the test system is HT-29. In words: Antiproliferative activity against human HT-29 cells measured after 72 hrs by MTT assay. The conditions noted are these: HT-29, 72 h. (Formazan colour is commonly taken as a measure of viable cells.)
For the next assay, the system named is MCF7. In words: Antiproliferative activity against human MCF7 cells measured after 72 hrs by MTT assay. The class given is functional, cell-based. The conditions noted are these: MCF7, 72 h.

Description for A549: Antiproliferative activity against human A549 cells measured after 72 hrs by MTT assay
Description for PC-3: Antiproliferative activity against human PC-3 cells measured after 72 hrs by MTT assay

Take `COc1cc2c(Oc3ccc(NC(=O)C4(c5nnc(-c6ccc(F)cc6)o5)CC4)cc3F)ccnc2cc1OCCCN1CCC(C)CC1`: the IC50 in the assay on PC-3 was found to be 2180 nM; in the assay on A549 it was 120 nM; in the assay with HT-29 it was 442 nM; in the assay on MCF7, 740 nM.

For the compound `COc1cc2c(Oc3ccc(NC(=O)C4(c5nnc(-c6ccc(F)cc6)o5)CC4)cc3F)ccnc2cc1OCCCN1CCCC1`, the IC50 in the assay with PC-3 was 2340 nM; in the assay on A549, 150 nM; in the assay on HT-29, 779 nM; in the assay on MCF7 it was 310 nM.

Regarding `COc1cc2c(Oc3ccc(NC(=O)C(C)c4nnc(-c5ccc(F)cc5)o4)cc3F)ccnc2cc1OCCCN1CCCCC1` (stereo not given), the IC50 in the assay with PC-3 is 1260 nM; in the assay on A549, 86 nM; with HT-29, 1000 nM; in the assay with MCF7, 1040 nM.

Take `COc1cc2c(Oc3ccc(NC(=O)Cc4nnc(-c5ccc(Cl)cc5)o4)cc3F)ccnc2cc1OCCCN1CCC(C)CC1`: the IC50 in the assay with PC-3 turned out to be 360 nM; with A549 it was 630 nM; in the assay on HT-29, 2460 nM.

For `COc1cc2c(Oc3ccc(NC(=O)C(C)c4nnc(-c5ccc(F)cc5)o4)cc3F)ccnc2cc1OCCCN1CCOCC1` (stereo not given), the IC50 in the assay with PC-3 amounted to 1180 nM; with A549, 52 nM; in the assay with HT-29 it was 2540 nM; in the assay on MCF7 it was 1050 nM.

Turning to `CCC(C(=O)Nc1ccc(Oc2ccnc3cc(OCCCN4CCOCC4)c(OC)cc23)c(F)c1)c1nnc(-c2ccc(F)cc2)o1` (stereo not given), the IC50 in the assay on PC-3 turned out to be 2530 nM; in the assay on A549, 49 nM; with HT-29 it was 2020 nM; with MCF7, 2690 nM.

Consider `COc1ccc(-c2nnc(CC(=O)Nc3ccc(Oc4ccnc5cc(OCCCN6CCC(C)CC6)c(OC)cc45)c(F)c3)o2)cc1`, for which the results for the IC50 in the assay on PC-3, in the assay on A549 and in the assay on HT-29 were 410 nM, 1560 nM and 7520 nM, respectively.

`COc1cc2c(Oc3ccc(NC(=O)Cc4ncc(-c5ccc(F)cc5)o4)cc3F)ccnc2cc1OCCCN1CCC(C)CC1`: the 50% inhibitory concentration (IC50) worked out at 540 nM in the assay on PC-3, 105 nM with A549 and 109 nM in the assay on HT-29.

For the compound `CCC(C(=O)Nc1ccc(Oc2ccnc3cc(OCCCN4CCCC4)c(OC)cc23)c(F)c1)c1nnc(-c2ccc(F)cc2)o1` (stereo not given), the IC50 in the assay on PC-3 amounted to 1420 nM; in the assay on A549 it was 78 nM; in the assay on HT-29 it was 570 nM; with MCF7, 1040 nM.

With `COc1cc2c(Oc3ccc(NC(=O)Cc4nnc(-c5ccc(F)cc5)o4)cc3F)ccnc2cc1OCCCN1CCCCC1`, the results for the IC50 in the assay on PC-3, in the assay on A549 and in the assay with HT-29 were 400 nM, 813 nM and 813 nM, respectively.

For the compound `COc1cc2c(Oc3ccc(NC(=O)C(C)c4nnc(-c5ccc(F)cc5)o4)cc3F)ccnc2cc1OCCCN1CCCC1` (stereo not given), the IC50 with PC-3 was determined as 1080 nM; with A549, 76 nM; in the assay on HT-29, 1270 nM; with MCF7, 2700 nM.

Take `COc1cc2c(Oc3ccc(NC(=O)Cc4nnc(-c5ccc(F)cc5)o4)cc3F)ccnc2cc1OCCCN1CCC(C)CC1`: the figures for the concentration for half-maximal inhibition (IC50) with PC-3, in the assay on A549 and in the assay with HT-29 were 280 nM, 82 nM and 238 nM, respectively.

As to `CCC(C(=O)Nc1ccc(Oc2ccnc3cc(OCCCN4CCN(C)CC4)c(OC)cc23)c(F)c1)c1nnc(-c2ccc(F)cc2)o1` (stereo not given), the IC50 in the assay with PC-3 amounted to 970 nM; in the assay with A549, 38 nM; with HT-29, 1540 nM; in the assay on MCF7, 2220 nM.

With `COc1cc2c(Oc3ccc(NC(=O)Cc4ncc(-c5ccc(F)cc5)o4)cc3F)ccnc2cc1OCCCN1CCCC1`, the IC50 with PC-3 was found to be 340 nM; with A549 it was 178 nM; with HT-29, 4170 nM.

For `COc1cc2nccc(Oc3ccc(NC(=O)c4cc(-c5ccc(F)cc5)on4)cc3)c2cc1OC`, the IC50 in the assay with PC-3 is 29400 nM; with A549, 40400 nM; in the assay on HT-29 it was over 100000 nM.

As for `COc1cc2c(Oc3ccc(NC(=O)C(C)(C)c4nnc(-c5ccc(F)cc5)o4)cc3F)ccnc2cc1OCCCN1CCCCC1`, the IC50 in the assay with PC-3 was found to be 1760 nM; in the assay on A549 it was 215 nM; in the assay on HT-29 it was 871 nM; in the assay on MCF7, 470 nM.

`COc1cc2c(Oc3ccc(NC(=O)C(C)(C)c4nnc(-c5ccc(F)cc5)o4)cc3F)ccnc2cc1OCCCN1CCCC1`: the IC50 was 1050 nM with PC-3, 263 nM with A549 and 1030 nM in the assay on HT-29.

For the compound `COc1cc2c(Oc3ccc(NC(=O)c4ncc(-c5ccc(F)cc5)o4)cc3)ccnc2cc1OCCCN1CCC(C)CC1`, the results for the IC50 in the assay with PC-3, in the assay on A549 and in the assay on HT-29 were 720 nM, 240 nM and 1890 nM, respectively.

Regarding `COc1cc2c(Oc3ccc(NC(=O)Cc4nnc(-c5ccc(F)cc5)o4)cc3F)ccnc2cc1OCCCN1CCN(C)CC1`, the IC50 with PC-3 came out at 410 nM; with A549, 71 nM; in the assay with HT-29 it was 3480 nM.

Turning to `COc1cc2c(Oc3ccc(NC(=O)c4nc(-c5ccc(F)cc5)no4)cc3)ccnc2cc1OCCCN1CCC(C)CC1`, the IC50 in the assay on PC-3 was found to be 1040 nM; in the assay with A549, 870 nM; in the assay on HT-29, 6380 nM.

Turning to `CCC(C(=O)Nc1ccc(Oc2ccnc3cc(OCCCN4CCC(C)CC4)c(OC)cc23)c(F)c1)c1nnc(-c2ccc(F)cc2)o1` (stereo not given), the IC50 in the assay with PC-3 turned out to be 400 nM; in the assay with A549, 119 nM; with HT-29, 554 nM; with MCF7, 460 nM.

Regarding `COc1cc2nccc(Oc3ccc(NC(=O)c4nnc(-c5ccc(F)cc5)o4)cc3)c2cc1OC`, the IC50 was over 100000 nM in the assay on PC-3, 5140 nM in the assay with A549 and 52300 nM with HT-29.

As for `COc1cc2c(Oc3ccc(NC(=O)Cc4ncc(-c5ccc(F)cc5)o4)cc3F)ccnc2cc1OCCCN1CCCCC1`, the IC50 with PC-3 was determined as 530 nM; in the assay with A549 it was 1040 nM; with HT-29, 1040 nM.

On to `COc1cc2c(Oc3ccc(NC(=O)Cc4nnc(-c5ccc(Br)cc5)o4)cc3F)ccnc2cc1OCCCN1CCC(C)CC1`, for which the IC50 with PC-3 was determined as 680 nM; with A549, 102 nM; with HT-29 it was 583 nM.

For `COc1cc2c(Oc3ccc(NC(=O)Cc4nc(-c5ccc(F)cc5)no4)cc3F)ccnc2cc1OCCCN1CCC(C)CC1`, the IC50 with PC-3 is 330 nM; in the assay with A549, 106 nM; with HT-29 it was 1160 nM.

Take `COc1cc2c(Oc3ccc(NC(=O)c4nnc(-c5ccc(F)cc5)o4)cc3)ccnc2cc1OCCCN1CCC(C)CC1`: the figures for the IC50 in the assay with PC-3, with A549 and with HT-29 were 3810 nM, 2730 nM and 7890 nM, respectively.

For the compound `COc1cc2c(Oc3ccc(NC(=O)C(C)(C)c4nnc(-c5ccc(F)cc5)o4)cc3F)ccnc2cc1OCCCN1CCOCC1`, the IC50 in the assay on PC-3 turned out to be 1790 nM; in the assay with A549, 275 nM; in the assay on HT-29, 2480 nM; in the assay on MCF7, 1600 nM.

With `COc1cc2nccc(Oc3ccc(NC(=O)c4nc(-c5ccc(F)cc5)no4)cc3)c2cc1OC`, the IC50 is over 100000 nM in the assay on PC-3, 10300 nM with A549 and 39700 nM in the assay on HT-29.

As for `COc1cc2c(Oc3ccc(NC(=O)C(C)(C)c4nnc(-c5ccc(F)cc5)o4)cc3F)ccnc2cc1OCCCN1CCC(C)CC1`, the IC50 with PC-3 stood at 1490 nM; with A549 it was 420 nM; in the assay with HT-29 it was 648 nM; in the assay on MCF7, 370 nM.

With `COc1cc2c(Oc3ccc(NC(=O)Cc4nnc(-c5ccc(F)cc5)o4)cc3F)ccnc2cc1OCCCN1CCCC1`, the results for the IC50 in the assay with PC-3, with A549 and in the assay on HT-29 were 210 nM, 91 nM and 2370 nM, respectively.

Turning to `COc1cc2c(Oc3ccc(NC(=O)Cc4ncc(-c5ccc(F)cc5)o4)cc3F)ccnc2cc1OCCCN1CCOCC1`, the IC50 stood at 2410 nM with PC-3, 596 nM in the assay with A549 and 13700 nM in the assay with HT-29.

Take `CCC(C(=O)Nc1ccc(Oc2ccnc3cc(OCCCN4CCCCC4)c(OC)cc23)c(F)c1)c1nnc(-c2ccc(F)cc2)o1` (stereo not given): the IC50 in the assay on PC-3 was 1470 nM; with A549, 92 nM; in the assay on HT-29 it was 1080 nM; in the assay with MCF7 it was 410 nM.

Consider `COc1cc2c(Oc3ccc(NC(=O)C4(c5nnc(-c6ccc(F)cc6)o5)CC4)cc3F)ccnc2cc1OCCCN1CCOCC1`, for which the IC50 is 13000 nM with PC-3, 1660 nM in the assay with A549, 9330 nM in the assay on HT-29 and over 100000 nM in the assay with MCF7.

Regarding `COc1cc2c(Oc3ccc(NC(=O)C(C)c4nnc(-c5ccc(F)cc5)o4)cc3F)ccnc2cc1OCCCN1CCN(C)CC1` (stereo not given), the IC50 was 1700 nM in the assay with PC-3, 75 nM in the assay on A549, 1960 nM with HT-29 and 1630 nM in the assay with MCF7.

With `COc1cc2c(Oc3ccc(NC(=O)C4(c5nnc(-c6ccc(F)cc6)o5)CC4)cc3F)ccnc2cc1OCCCN1CCN(C)CC1`, the IC50 in the assay on PC-3 is 1670 nM; with A549, 143 nM; in the assay on HT-29, 1050 nM; in the assay with MCF7 it was 2610 nM.

Turning to `COc1cc2c(Oc3ccc(NC(=O)C(C)(C)c4nnc(-c5ccc(F)cc5)o4)cc3F)ccnc2cc1OCCCN1CCN(C)CC1`, the IC50 in the assay on PC-3 was 1900 nM; with A549, 597 nM; in the assay with HT-29, 1080 nM; in the assay with MCF7 it was 2480 nM.

Take `COc1cc2nccc(Oc3ccc(NC(=O)C4(C(=O)Nc5ccc(F)cc5)CC4)cc3)c2cc1OC` [CABOZANTINIB]: the results for the half-inhibitory concentration (IC50) with PC-3, in the assay with A549 and in the assay with HT-29 were 8250 nM, 3750 nM and 4560 nM, respectively.

On to `COc1cc2c(Oc3ccc(NC(=O)Cc4ncc(-c5ccc(F)cc5)o4)cc3F)ccnc2cc1OCCCN1CCN(C)CC1`, for which the IC50 came to 570 nM in the assay with PC-3, 254 nM in the assay with A549 and 2520 nM in the assay on HT-29.

As for `COc1cc2c(Oc3ccc(NC(=O)Cc4nnc(-c5ccccc5)o4)cc3F)ccnc2cc1OCCCN1CCC(C)CC1`, the figures for the IC50 in the assay with PC-3, with A549 and in the assay with HT-29 were 4730 nM, 920 nM and 7810 nM, respectively.

Regarding `COc1cc2c(Oc3ccc(NC(=O)Cc4nnc(-c5ccc(F)cc5)o4)cc3F)ccnc2cc1OCCCN1CCOCC1`, the results for the IC50 with PC-3, with A549 and in the assay with HT-29 were 680 nM, 103 nM and 4300 nM, respectively.

In the case of `COc1cc2nccc(Oc3ccc(NC(=O)c4ncc(-c5ccc(F)cc5)o4)cc3)c2cc1OC`, the results for the IC50 in the assay on PC-3, in the assay with A549 and with HT-29 were 21900 nM, 5590 nM and over 100000 nM, respectively.

Values taken from ChEMBL document CHEMBL4680122, “Design, synthesis and biological evaluation of new Axl kinase inhibitors containing 1,3,4-oxadiazole acetamide moiety as novel linker” (Eur J Med Chem, 2020).
